Experimental data reported in ChEMBL document CHEMBL5725522, “Inhibitors of bruton's tyrosine kinase” (2017).

Target: Tyrosine-protein kinase BTK (Homo sapiens, UniProt Q06187)
Assay: TR-FRET (Time Resolved FRET) Assay: This BTK competition assay measures compound potency (IC50) for the inactivated state of Bruton's Tyrosine Kinase using FRET (Förster/Fluorescence Resonance Energy Transfer) technology. The BTK-Eu complex was incubated on ice one hour prior to use at a starting concentration of 50 nM BTK-Bioease: 10 nM Eu-streptavidin (Perkin-Elmer Catalog#AD0062). The assay buffer consisted of 20 mM HEPES (pH 7.15), 0.1 mM DTT, 10 mM MgCl2, 0.5 mg/ml BSA with 3% Kinase Stabilizer (Fremont Biosolutions, Catalog #STB-K02). After 1 h, the reaction mixture from above was diluted 10 fold in assay buffer to make 5 nM BTK: 1 nM Eu-Streptavidin complex (donor fluorophore). 18 μl of a mixture of 0.11 nM BTK-Eu and 0.11 nM Kinase Tracer 178 (Invitrogen, Catalog #PV5593,) with BTK-Eu alone as no negative control, was then dispensed into 384-well flat bottom plates (Greiner, 784076). Compounds to be tested in assay were prepared as 10× concentrations and serial dilution in half-log increments was performed in DMSO so as to generate 10 point curves. […]

Chain of Tyrosine-protein kinase BTK (Q06187 whole entry): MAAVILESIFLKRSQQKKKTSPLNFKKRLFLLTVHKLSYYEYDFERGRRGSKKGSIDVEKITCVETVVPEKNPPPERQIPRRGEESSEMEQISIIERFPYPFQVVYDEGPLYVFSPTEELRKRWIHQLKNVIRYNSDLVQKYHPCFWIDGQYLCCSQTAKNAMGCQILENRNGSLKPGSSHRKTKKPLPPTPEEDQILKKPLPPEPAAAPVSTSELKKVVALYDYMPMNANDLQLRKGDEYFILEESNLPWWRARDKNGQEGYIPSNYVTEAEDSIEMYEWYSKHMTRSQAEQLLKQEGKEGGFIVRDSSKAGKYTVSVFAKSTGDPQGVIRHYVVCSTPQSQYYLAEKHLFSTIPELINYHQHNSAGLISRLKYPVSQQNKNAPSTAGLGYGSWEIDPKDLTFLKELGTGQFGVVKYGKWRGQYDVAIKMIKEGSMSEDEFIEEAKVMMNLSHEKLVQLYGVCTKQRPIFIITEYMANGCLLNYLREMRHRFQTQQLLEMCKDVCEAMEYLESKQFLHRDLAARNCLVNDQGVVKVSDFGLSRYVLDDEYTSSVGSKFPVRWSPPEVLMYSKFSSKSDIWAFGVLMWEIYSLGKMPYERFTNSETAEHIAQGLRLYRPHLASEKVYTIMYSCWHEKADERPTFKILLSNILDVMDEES

Compound | IC50 [nM]
O=C(c1cc2cc(C(=O)N3CCOCC3)ccc2[nH]1)c1cnn2c1[nH]c(=O)c1cc(Oc3cccc(F)c3F)ccc12 | > 100000
CN1CCC(NC(=O)c2ccc3[nH]c(C(=O)c4cnn(-c5ccc(Oc6ccccc6C(=O)N(C)C)cc5Cl)c4N)cc3c2)C1 (configuration not stated) | 2.9
